According to patent publication US9120791B2, “Indolizine compounds, a process for their preparation and pharmaceutical compositions containing them” (LES LABORATOIRES SERVIER, priority 2012, dated 2015):
Counter-ions that a name gives are not always drawn.

Legend:
[1] = tested on: RS4;11 leukaemia tumour line; test: In vitro cytotoxicity (Microculture Tetrazolium Assay, 48 hours); format: cell-based; conditions: Homo sapiens, RS4;11 cells, 48 hours exposure, MTT, concentration that inhibits cell viability by 50%, read-out: IC50 (nM) MTT RS4
Description: The cytotoxicity studies were carried out on the RS4;11 leukaemia tumour line.
The cells are distributed onto microplates and exposed to the test compounds for 48 hours.

Bcl-2 protein = Bcl-2 protein (Homo sapiens (Human), UniProt P10415); test: Inhibition of Bcl-2 by the fluorescence polarisation technique; format: binding; conditions: fluorescence polarisation test; concentration that inhibits fluorescence polarisation by 50%; read-out: IC50 (nM) Bcl-2 FP
Description: The fluorescence polarisation tests were carried out on microplates (384 wells). […] After incubation for 2 hours, the fluorescence polarisation is measured.

Sequence of Bcl-2 protein (P10415 whole entry): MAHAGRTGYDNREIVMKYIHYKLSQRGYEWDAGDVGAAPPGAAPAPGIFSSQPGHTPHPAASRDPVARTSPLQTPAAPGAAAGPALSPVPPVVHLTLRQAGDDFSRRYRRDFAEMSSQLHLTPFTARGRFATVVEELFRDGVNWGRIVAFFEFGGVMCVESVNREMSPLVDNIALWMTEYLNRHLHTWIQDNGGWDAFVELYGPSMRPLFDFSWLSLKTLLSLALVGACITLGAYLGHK

SMILES	IC50 [1] [nM]	IC50 (Bcl-2 protein) [nM]
CN1CCCc2cc(N(C(=O)c3cc(-c4cc(Cl)ccc4C(=O)N4Cc5ccccc5C[C@H]4CN4CCOCC4)n4c3CCCC4)c3ccc(O)cc3)ccc21 [Example 26, 3-{5-Chloro-2-[((3S)-3-(4-morpholinylmethyl)-3,4-dihydro-2(1H)-isoquinolinyl)carbonyl]phenyl}-N-(4-hydroxyphenyl)-N-(1-methyl-1,2,3,4-tetrahydro-6-quinolinyl)-5,6,7,8-tetrahydro-1-indolizine carboxamide hydrochloride]	40	17
O=C(c1cc(-c2cc(F)ccc2C(=O)N2Cc3ccccc3C[C@H]2CN2CCOCC2)n2c1CCCC2)N(c1ccccc1)c1ccc(O)cc1 [Example 25, 3-{5-Fluoro-2-[((3S)-3-(4-morpholinylmethyl)-3,4-dihydro-2(1H)-isoquinolinyl)carbonyl]phenyl}-N-(4-hydroxyphenyl)-N-phenyl-5,6,7,8-tetrahydro-1-indolizine carboxamide hydrochloride]	143	29
CN1CCN(C[C@@H]2Cc3ccccc3CN2C(=O)c2cc3c(cc2-c2cc(C(=O)N(c4ccc(O)cc4)c4ccc5c(ccn5C)c4)c4n2CCCC4)OCO3)CC1 [Example 13, N-(4-Hydroxyphenyl)-N-(1-methyl-1H-indol-5-yl)-3-{6-[((3S)-3-[(4-methyl-1-piperazinyl)methyl]-3,4-dihydro-2(1H)-isoquinolinyl)carbonyl]-1,3-benzodioxol-5-yl}-5,6,7,8-tetrahydro-1-indolizine carboxamide bis(hydrochloride)]	8.63	12
O=C(c1cc(-c2cc3c(cc2C(=O)N2Cc4ccccc4C[C@H]2CN2CCS(=O)(=O)CC2)OCO3)n2c1CCCC2)N(c1ccccc1)c1ccc(O)cc1 [Example 147, 3-(6-{[(3S)-3-[(1,1-Dioxidothiomorpholin-4-yl)methyl]-3,4-dihydroisoquinolin-2(1H)-yl]carbonyl}-1,3-benzodioxol-5-yl)-N-(4-hydroxyphenyl)-N-phenyl-5,6,7,8-tetrahydroindolizine-1-carboxamide hydrochloride]	74.2	
COc1c(F)cc(N(C(=O)c2cc(-c3cc(Cl)ccc3C(=O)N3Cc4ccccc4C[C@H]3CN3CCOCC3)n3c2CCCC3)c2ccc(O)cc2)cc1F [Example 143, 3-(5-Chloro-2-{[(3S)-3-(morpholin-4-ylmethyl)-3,4-dihydroisoquinolin-2(1H)-yl]carbonyl}phenyl)-N-(3,5-difluoro-4-methoxyphenyl)-N-(4-hydroxyphenyl)-5,6,7,8-tetrahydroindolizine-1-carboxamide hydrochloride]	43.8	
Cl.[2H]C1([2H])Oc2cc(C(=O)N3Cc4ccccc4C[C@H]3CN3CCOCC3)c(-c3cc(C(=O)N(c4ccc(O)cc4)c4ccc5c(ccn5C)c4)c4n3CCCC4)cc2O1 [Example 37, N-(4-Hydroxyphenyl)-N-(1-methyl-1H-indol-5-yl)-3-{2,2-dideuterio-6-[((3S)-3-(4-morpholinylmethyl)-3,4-dihydro-2(1H)-isoquinolinyl)carbonyl]-1,3-benzodioxol-5-yl}-5,6,7,8-tetrahydro-1-indolizine carboxamide hydrochloride]	11.6	
Cn1ccc2cc(N(C(=O)c3cc(-c4cc5c(cc4C(=O)N4Cc6ccccc6C[C@H]4CN4CCOCC4)OCO5)n4c3CCCC4)c3ccc(O)cc3)ccc21 [Example 10, N-[4-(Hydroxy)phenyl]-N-(1-methyl-1H-indol-5-yl)-3-{6-[((3S)-3-(4-morpholinylmethyl)-3,4-dihydro-2(1H)-isoquinolinyl)carbonyl]-1,3-benzodioxol-5-yl}-5,6,7,8-tetrahydro-1-indolizine carboxamide hydrochloride]	11	
